In publication PMC12540872 (Nature Communications, 2025) one finds Kd data, which are given here for one compound.

The assay addresses MMOH (hydroxylase of soluble methane monooxygenase, sMMO). The assay is described as follows: isothermal titration calorimetry. Format: binding, Methylosinus trichosporium. As to conditions: enthalpically driven; surface site near K323 proposed. For orientation: ITC needs no label: the signal is the heat of the interaction.

In turn, `O=C1OC2(c3cc(I)c(O)c(I)c3Oc3c2cc(I)c(O)c3I)c2c(Cl)c(Cl)c(Cl)c(Cl)c21` [RB, rose bengal] displayed a Kd of 9.23 ± 1.3 µM.

By Kd is commonly meant the constant that tells how readily two partners part at equilibrium.
